From ChEMBL document CHEMBL1201862, “PubChem BioAssay data set” (2004)
Activity calls are given as the source filed them.

Assays:
Protein skinhead-1 = target: T1, Protein skinhead-1 (Caenorhabditis elegans, UniProt P34707); format: functional
T1 sequence (P34707 whole entry): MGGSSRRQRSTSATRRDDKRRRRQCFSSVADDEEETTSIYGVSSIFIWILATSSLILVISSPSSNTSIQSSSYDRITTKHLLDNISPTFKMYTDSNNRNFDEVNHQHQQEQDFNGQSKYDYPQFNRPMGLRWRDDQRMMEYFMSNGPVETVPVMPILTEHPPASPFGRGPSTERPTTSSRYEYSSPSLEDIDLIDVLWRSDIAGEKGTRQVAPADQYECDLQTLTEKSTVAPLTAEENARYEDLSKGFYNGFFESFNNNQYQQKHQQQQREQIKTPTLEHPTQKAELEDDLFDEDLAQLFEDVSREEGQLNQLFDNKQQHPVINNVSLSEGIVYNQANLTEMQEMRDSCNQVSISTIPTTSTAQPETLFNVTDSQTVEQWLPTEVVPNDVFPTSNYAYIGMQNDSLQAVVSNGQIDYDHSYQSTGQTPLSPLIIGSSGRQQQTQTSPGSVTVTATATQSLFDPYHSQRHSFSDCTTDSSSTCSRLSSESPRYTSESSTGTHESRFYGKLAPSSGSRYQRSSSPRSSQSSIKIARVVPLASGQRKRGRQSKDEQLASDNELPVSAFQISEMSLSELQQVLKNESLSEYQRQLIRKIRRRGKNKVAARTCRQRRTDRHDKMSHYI

[1] = system: Streptococcus sp. 'group A'; experiment: growth inhibition of control SK(-) GAS strain, dose response, counter-screen for streptokinase expression inhibitor project, luminescence, kanamycin, BacTiterGlo, confirmation (AID 1900); format: functional, organism-based
Streptokinase A = target: T2, Streptokinase A (Streptococcus pyogenes serotype M1, UniProt P10520); experiment: S. pyogenes streptokinase expression inhibitors, potency, dose response, plasminogen activation absorbance, OD405 (AID 1914); format: functional, Streptococcus pyogenes M1 GAS;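 further: secreted streptokinase activity via plasminogen activation per viability signal from cell pellet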
T2 sequence (P10520 whole entry): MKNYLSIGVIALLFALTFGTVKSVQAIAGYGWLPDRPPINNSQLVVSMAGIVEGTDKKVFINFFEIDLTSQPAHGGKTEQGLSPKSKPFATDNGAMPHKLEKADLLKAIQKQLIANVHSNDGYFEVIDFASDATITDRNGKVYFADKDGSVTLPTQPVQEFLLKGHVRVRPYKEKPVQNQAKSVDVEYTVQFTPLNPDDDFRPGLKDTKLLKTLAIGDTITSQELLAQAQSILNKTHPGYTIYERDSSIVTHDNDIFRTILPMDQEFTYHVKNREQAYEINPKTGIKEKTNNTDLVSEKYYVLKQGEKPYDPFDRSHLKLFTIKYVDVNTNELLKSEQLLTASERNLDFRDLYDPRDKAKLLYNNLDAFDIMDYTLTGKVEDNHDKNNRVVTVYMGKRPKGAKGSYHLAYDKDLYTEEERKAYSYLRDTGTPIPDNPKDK

Streptococcus = experiment: Group A Streptococcus viability loss, dose response, counter-screen for streptokinase expression inhibitor project, luminescence, BacTiterGlo (AID 1915); format: functional, organism-based;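 further: potency for reduction of bacterial viability or growth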
[2] = target: T3, Calpain-2 catalytic subunit (Sus scrofa, UniProt P43367); experiment: pig calpain II inhibitor potency, dose response, biochemical, fluorogenic peptide substrate (AID 1420); format: functional
T3 sequence (P43367 whole entry): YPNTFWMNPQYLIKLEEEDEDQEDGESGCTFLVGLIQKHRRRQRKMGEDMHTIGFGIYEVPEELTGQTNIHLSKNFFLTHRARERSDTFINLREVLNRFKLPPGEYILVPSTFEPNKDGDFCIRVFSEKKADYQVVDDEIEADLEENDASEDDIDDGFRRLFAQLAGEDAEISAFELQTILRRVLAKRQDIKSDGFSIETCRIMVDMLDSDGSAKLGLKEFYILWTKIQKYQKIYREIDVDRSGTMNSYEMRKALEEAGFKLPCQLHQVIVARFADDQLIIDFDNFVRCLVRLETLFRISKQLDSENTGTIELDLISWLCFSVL

[3] = Luminescence Cell-Based Dose Confirmation HTS to Identify Activators of 5'UTR Stem-Loop Driven Alpha-Synuclein mRNA Translation in H4 Neuroglioblastoma Cells. [Related pubchem assays: 1829 (Project Summary), 1814 (Primary HTS)]; format: functional
[4] = Luminescence Cell-Based Dose Response HTS to Identify Activators of Luciferase Translation or Activity in H4 […] Cells. [Related pubchem assays: 1829 (Project Summary), 1814 (Primary HTS)]; format: functional
H4 = experiment: Luminescence Cell-Based Dose Response HTS to Identify Activators of 5'UTR Stem-Loop Driven Prion Protein mRNA Translation in H4 Neuroglioblastoma Cells. [Related pubchem assays: 1829 (Project Summary), 1814 (Primary HTS)]; format: functional; conditions: Homo sapiens
[5] = target: T4, Heat shock factor protein 1 (Mus musculus, UniProt P38532); experiment: inhibition of MG132-induced HSE-luciferase signal, confirmation, cell-based, NIH3T3, luminescence, dose retest (AID 2382); format: functional;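 further: NIH3T3 fibroblasts with HSF1-driven luciferase reporter stressed by proteasome inhibitor MG132; luminescence from HSF1-driven luciferase expression after 8 hours of MG132 stress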
T4 sequence (P38532 whole entry): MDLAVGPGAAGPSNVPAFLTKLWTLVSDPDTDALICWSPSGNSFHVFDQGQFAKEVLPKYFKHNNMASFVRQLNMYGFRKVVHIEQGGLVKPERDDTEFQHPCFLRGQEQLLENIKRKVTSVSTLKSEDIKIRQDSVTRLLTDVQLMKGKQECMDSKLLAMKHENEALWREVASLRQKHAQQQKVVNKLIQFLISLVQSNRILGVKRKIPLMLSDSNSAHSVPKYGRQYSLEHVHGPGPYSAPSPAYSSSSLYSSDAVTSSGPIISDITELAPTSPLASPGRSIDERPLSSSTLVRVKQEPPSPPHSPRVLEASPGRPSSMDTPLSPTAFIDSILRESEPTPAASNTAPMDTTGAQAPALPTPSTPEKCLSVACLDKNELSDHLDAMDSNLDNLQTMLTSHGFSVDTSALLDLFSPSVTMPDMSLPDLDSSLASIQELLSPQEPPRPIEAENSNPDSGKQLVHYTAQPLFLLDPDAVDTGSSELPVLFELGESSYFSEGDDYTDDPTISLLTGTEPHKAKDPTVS

Paired box protein Pax-8 = Paired box protein Pax-8 (Homo sapiens, UniProt Q06710); experiment: inhibitors of PAX8-driven TPO luciferase reporter, dose response, RMG-I cells, cherry-pick (AID 687027); format: functional, cell-based;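 further: luciferase reporter driven by Pax8 target thyroperoxidase promoter measured by SteadyGlo luminescence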
Chain of Paired box protein Pax-8 (Q06710 whole entry, the tested form may be a part): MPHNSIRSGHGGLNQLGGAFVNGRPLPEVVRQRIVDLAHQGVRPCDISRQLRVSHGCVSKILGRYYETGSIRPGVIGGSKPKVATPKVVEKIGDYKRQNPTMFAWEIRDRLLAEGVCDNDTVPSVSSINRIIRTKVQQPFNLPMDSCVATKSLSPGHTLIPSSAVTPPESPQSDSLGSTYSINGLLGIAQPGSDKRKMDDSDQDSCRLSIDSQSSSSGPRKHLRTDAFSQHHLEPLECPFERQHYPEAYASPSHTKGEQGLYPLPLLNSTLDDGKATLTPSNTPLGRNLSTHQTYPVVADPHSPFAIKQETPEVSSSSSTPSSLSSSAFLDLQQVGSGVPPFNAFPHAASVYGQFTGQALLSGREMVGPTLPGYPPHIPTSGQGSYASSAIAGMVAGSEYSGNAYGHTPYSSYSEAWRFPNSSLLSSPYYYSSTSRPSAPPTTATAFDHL

[6] = inhibitors of clade B AD8 Env fusion, dose response, cell-based, cherry-pick (AID 652062); format: functional;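 further: luciferase signal from cell-cell fusion driven by HIV-1 clade B AD8 Env; potency is for inhibitors of fusion seen as a drop in luminescence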
[7] = P. falciparum Dd2 growth inhibitors, dose response, SYBR Green, cherry-picked samples (AID 1159567); format: functional, cell-based

## Cc1c(C(=O)N(C)c2ccc(Cl)cc2)cnn1-c1ccccc1
Protein skinhead-1
  IC50: > 100 µM (inactive)

## C=CCn1c(N2C(=O)CC(Cc3ccccc3)C2=O)nc2ccccc21 (stereo not given)
[1]
  EC50: 9.02 µM (active)
Streptokinase A
  EC50: > 150 µM (not active)
Streptococcus
  EC50: > 150 µM (not active)

## CCOC(=O)N1CCc2c(sc3c2c(=O)n(Cc2ccccc2)c(=O)n3CC(=O)NCCOC)C1
[2]
  IC50: 7.05 µM (not active)

## N#C/C(=C\c1ccco1)Sc1nc2ccccc2s1
[3]
  EC50: 13.9 µM (active)
[4]
  EC50: 11.8 µM (active)
H4
  EC50: 25.6 µM (active)
Protein skinhead-1
  IC50: > 100 µM (inactive)

## CC(C)(C)NC1=NN=C(c2ccc(Cl)cc2)CS1
Protein skinhead-1
  IC50: 13.9 µM (active)

## Cc1ccnn2c(-c3ccccc3)c3c(=O)n(C)c(=O)n(C)c3c12
[1]
  EC50: > 150 µM (not active)
Streptokinase A
  EC50: > 150 µM (not active)
Streptococcus
  EC50: > 150 µM (not active)

## CC(=O)c1cn(CC(=O)Nc2ccccc2C)c2ccccc12
[5]
  EC50: > 195 µM (not active)

## CCCCSc1nnc(-c2ccc(C)cc2)c2ccccc12
[2]
  IC50: 5.25 µM (not active)

## Cc1ccc(NC(=O)c2ccc(F)cc2F)cc1
Protein skinhead-1
  IC50: 79 µM (inactive)

## Cc1ccc(N(CC(=O)NCC2CCCO2)S(=O)(=O)c2ccc(Cl)cc2)cc1C (stereo not given)
Protein skinhead-1
  IC50: > 100 µM (inactive)

## Oc1ccc(C[C@H]2CN([C@@H](Cc3ccc(O)cc3)CN3CCC[C@@H]3CN3C(=S)NC[C@@H]3Cc3ccccc3)C(=S)N2CC2CCCCCC2)cc1
Paired box protein Pax-8
  AC50: 9.27 µM (active)

## Cc1ccc(NC(=O)CSc2nc(N)cc(O)n2)cc1S(=O)(=O)N1CCCCCC1
Protein skinhead-1
  IC50: > 100 µM (inactive)

## C[C@H]1CN([C@@H](C)CO)C(=O)c2cccc(NC(=O)Nc3ccc(F)cc3)c2O[C@H]1CN(C)C(=O)Nc1ccc(C(F)(F)F)cc1
Paired box protein Pax-8
  AC50: 13.1 µM (active)

## O=C(C[C@H]1C[C@@H]2c3cc(NC(=O)C4CCOCC4)ccc3O[C@@H]2[C@H](CO)O1)NCc1ccccc1
[6]
  AC50: 2.09 µM (active)

## C[C@@H]1CN([C@@H](C)CO)C(=O)c2c(c3ccccc3n2C)-c2ccccc2CO[C@H]1CN(C)C(=O)Nc1ccc2c(c1)OCO2
Paired box protein Pax-8
  AC50: 5.68 µM (active)

## OC[C@@H]1CC[C@@H]2O[C@H](CCc3ccc(-c4ccc(F)cc4)cc3)[C@H](n3cc(C4CC4)nn3)C[C@@H]2O1
[7]
  AC50: 7.67 µM (active)

## N#C[C@@H]1[C@H](c2ccccc2-c2cccc(F)c2)[C@H](CO)N1C(=O)C1CC1
[7]
  AC50: 3.48 µM (active)

## COCC#Cc1ccc(CC[C@H]2O[C@H]3CC[C@@H](CO)O[C@H]3C[C@@H]2n2cc(C3CC3)nn2)cc1
[7]
  AC50: 5.82 µM (active)

## CCC(=O)N1CCC2(CC1)CN(Cc1ccc3c(c1)OCO3)[C@@H](CO)c1c2c2ccc(OC)cc2n1C
[7]
  AC50: 4.05 µM (active)

## CN1c2ccc(C#Cc3cccnc3)cc2[C@@H]2[C@@H](CCN2C(=O)C2CCC2)[C@@H]1CO
[7]
  AC50: 4.18 µM (active)

## COc1cc(C(=O)NS(=O)(=O)c2ccccc2C)ccc1Cc1cn(C)c2ccc(NC(=O)OC3CCCC3)cc12 [ZAFIRLUKAST]
[1]
  EC50: 0.936 µM (active)
Streptokinase A
  EC50: > 50 µM (not active)
Streptococcus
  EC50: > 50 µM (not active)
